Source: PubChem BioAssay AID2060900 (Molecular Pharmacology Branch, DTP, NCI, 2025)

Tested on: 521955-158-R2-J5-PDC complex spheroids, viability
Test: Anticancer human tumor 521955-158-R2-J5-PDC patient-derived pancreatic carcinoma cell line growth inhibition [RAS]
Conditions: for IC50: curve of first compound; for viability, T/C: stronger effect = lower value; active means viability on the fitted dose curve at most 10% of control; inactive means the rest
How it was run: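 Multi-cell-type spheroids: tumor cells plus HUVEC endothelial cells and mesenchymal stem cells. RAS-pathway inhibitors were combined with targeted agents, each dosed in half-log steps down from clinical Cmax, or from 10 microM when Cmax was unknown.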

[1] = second compound 0.00316 µM, first compound 0.00316 µM
[2] = second compound 0.00316 µM, first compound 0.01 µM
[3] = second compound 0.00316 µM, first compound 0.0316 µM
[4] = second compound 0.00316 µM, first compound 0.1 µM
[5] = second compound 0.01 µM, first compound 0.00316 µM
[6] = second compound 0.01 µM, first compound 0.01 µM
[7] = second compound 0.01 µM, first compound 0.0316 µM
[8] = second compound 0.01 µM, first compound 0.1 µM
[9] = second compound 0.0316 µM, first compound 0.00316 µM
[10] = second compound 0.0316 µM, first compound 0.01 µM
[11] = second compound 0.0316 µM, first compound 0.0316 µM
[12] = second compound 0.0316 µM, first compound 0.1 µM
[13] = second compound 0.1 µM, first compound 0.00316 µM
[14] = second compound 0.1 µM, first compound 0.01 µM
[15] = second compound 0.1 µM, first compound 0.0316 µM
[16] = second compound 0.1 µM, first compound 0.1 µM
[17] = second compound 0.316 µM, first compound 0.00316 µM
[18] = second compound 0.316 µM, first compound 0.01 µM
[19] = second compound 0.316 µM, first compound 0.0316 µM
[20] = second compound 0.316 µM, first compound 0.1 µM
[21] = second compound 1 µM, first compound 0.00316 µM
[22] = second compound 1 µM, first compound 0.01 µM
[23] = second compound 1 µM, first compound 0.0316 µM
[24] = second compound 1 µM, first compound 0.1 µM
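Further: compound exposure lasted seven days before the viability read.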
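Wherever viability, T/C is given: spheroids also contain HUVEC endothelial cells and mesenchymal stem cells as stroma.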

CC(C)n1nc(-c2ccc3oc(N)nc3c2)c2c(N)ncnc21 + C=CC(=O)N1CCN(c2nc(OCC3CCCN3C)nc3c(F)c(-c4nc(N)cc(C)c4C(F)(F)F)c(Cl)cc23)C(C)C1
26.3 nM: IC50 (second compound 0.1 µM)
25.7 nM: IC50 (second compound 0.0316 µM)
31.2 nM: IC50 (second compound 0.01 µM)
27.3 nM: IC50 (second compound 1 µM)
22.2 nM: IC50 (second compound 0.316 µM)
inactive: viability, T/C (second compound 0.00316 µM, first compound 0.000316 µM) 103% | viability, T/C (second compound 0.00316 µM, first compound 0.001 µM) 77.8% | viability, T/C [1] 95.7% | viability, T/C [2] 79.1% | viability, T/C [3] 43.5% | viability, T/C [4] 34.5% | viability, T/C (second compound 0.01 µM, first compound 0.000316 µM) 93.8% | viability, T/C (second compound 0.01 µM, first compound 0.001 µM) 113% | viability, T/C [5] 95.9% | viability, T/C [6] 88% | viability, T/C [7] 49.3% | viability, T/C [8] 29.5% | viability, T/C (second compound 0.0316 µM, first compound 0.000316 µM) 76% | viability, T/C (second compound 0.0316 µM, first compound 0.001 µM) 134% | viability, T/C [9] 87.1% | viability, T/C [10] 93.7% | viability, T/C [11] 40.5% | viability, T/C [12] 29.7% | viability, T/C (second compound 0.1 µM, first compound 0.000316 µM) 141% | viability, T/C (second compound 0.1 µM, first compound 0.001 µM) 141% | viability, T/C [13] 109% | viability, T/C [14] 79.7% | viability, T/C [15] 42.6% | viability, T/C [16] 31.3% | viability, T/C (second compound 0.316 µM, first compound 0.000316 µM) 141% | viability, T/C (second compound 0.316 µM, first compound 0.001 µM) 134% | viability, T/C [17] 91.3% | viability, T/C [18] 68.9% | viability, T/C [19] 42.9% | viability, T/C [20] 33.4% | viability, T/C (second compound 1 µM, first compound 0.000316 µM) 149% | viability, T/C (second compound 1 µM, first compound 0.001 µM) 90.5% | viability, T/C [21] 87.6% | viability, T/C [22] 79.2% | viability, T/C [23] 42.4% | viability, T/C [24] 28.8%
25.5 nM: IC50 (second compound 0.00316 µM)

Nc1ccn(C2OC(CO)C(O)C2(F)F)c(=O)n1 (centres undefined) + C=CC(=O)N1CCN(c2nc(OCC3CCCN3C)nc3c(F)c(-c4nc(N)cc(C)c4C(F)(F)F)c(Cl)cc23)C(C)C1
258 nM: IC50 (second compound 0.316 µM)
273 nM: IC50 (second compound 0.0316 µM)
144 nM: IC50 (second compound 0.1 µM)
inactive: viability, T/C [1] 94.2% | viability, T/C [2] 88.7% | viability, T/C [3] 65% | viability, T/C [4] 59% | viability, T/C (second compound 0.00316 µM, first compound 0.316 µM) 36.6% | viability, T/C (second compound 0.00316 µM, first compound 1 µM) 12.9% | viability, T/C [5] 94.2% | viability, T/C [6] 89% | viability, T/C [7] 75.5% | viability, T/C [8] 73.3% | viability, T/C (second compound 0.01 µM, first compound 0.316 µM) 39.8% | viability, T/C (second compound 0.01 µM, first compound 1 µM) 15.3% | viability, T/C [9] 93.2% | viability, T/C [10] 93.8% | viability, T/C [11] 72.4% | viability, T/C [12] 67% | viability, T/C (second compound 0.0316 µM, first compound 0.316 µM) 52.7% | viability, T/C (second compound 0.0316 µM, first compound 1 µM) 13% | viability, T/C [13] 119% | viability, T/C [14] 88.6% | viability, T/C [15] 72.4% | viability, T/C [16] 50.5% | viability, T/C (second compound 0.1 µM, first compound 0.316 µM) 51.5% | viability, T/C (second compound 0.1 µM, first compound 1 µM) 11.9% | viability, T/C [17] 103% | viability, T/C [18] 93.4% | viability, T/C [19] 77.1% | viability, T/C [20] 70.1% | viability, T/C (second compound 0.316 µM, first compound 0.316 µM) 49.6% | viability, T/C (second compound 0.316 µM, first compound 1 µM) 11.7% | viability, T/C [21] 106% | viability, T/C [22] 100% | viability, T/C [23] 74.4% | viability, T/C [24] 63% | viability, T/C (second compound 1 µM, first compound 0.316 µM) 54.8% | viability, T/C (second compound 1 µM, first compound 1 µM) 13%
136 nM: IC50 (second compound 0.00316 µM)
225 nM: IC50 (second compound 0.01 µM)
233 nM: IC50 (second compound 1 µM)
